{"source": "patent US12459940B2", "about": "“Oxazole compound as multi-targeted inhibitor of IRAK4 and BTK” (SHANGHAI FOSUN PHARMACEUTICAL INDUSTRIAL DEVELOPMENT CO., …, priority 2019, dated 2025)", "key": {"[1]": {"test_system": "TNF-α production in THP-1 cells", "test": "THP-1 cytological TNFa ELISA assay (LPS-stimulated)", "type": "cell-based", "conditions": "Homo sapiens, TNF-α in culture supernatant, 150 ng/mL LPS, 18 hours", "protocol": "THP-1 human acute […] leukemia cells were purchased from ATCC (Cat #TIB-202) and cultured at 37° C. in 5% CO2 incubator. The composition of medium was RPMI1640 (Gibco, Cat #22400-105), and the supplementary compositions were 10% FBS (Gibco, Cat #10091148); 1% PenStrep (Gibco, Cat #15140); 0.05 mM 2-Mercaptoethanol (Sigma, Cat #M6250).\nTNF-α Elisa kit was used to detect the content of TNF-α in cell culture supernatant samples. TNF-α was produced by stimulating THP-1 cells with 150 ng/mL LPS (Sigma, Cat #L6529).\nTHP-1 cells cultured normally at logarithmic growth stage were seeded in a 96-well plate (Corning #3599) at a certain concentration (1*10^5/100 μL) and then put into a cell incubator for incubation. After two hours, 16.7 μL of different concentrations of the compound to be tested (8*final concentration) were added and incubated in an incubator. After one hour, 16.7 μL of 1200 ng/mL LPS was added and incubated in an incubator. After 18 hours, the culture supernatant samples were collected by centrifugation, and the content of TNF-α could be detected by TNF-α Elisa kit. Finally, OD signals (OD450-OD570) were read on envision board reader.\nThe OD450-OD570 signal value was converted into a percentage inhibition rate. Inhibition rate %=(ZPE−sample)/(ZPE−HPE)*100.\n“HPE” refers to the OD450-OD570 signal value of the control well without LPS stimulated cells, and “ZPE” refers to the OD450-OD570 signal value of the control well with LPS stimulated cells. The IC50 value of the compound was calculated by XLFit in the excel add-in. Y=Bottom+(Top−Bottom)/(1+(IC50/X)^HillSlope). Equation: […]"}, "[2]": {"test_system": "TNF-α secretion", "test": "In vivo pharmacodynamic study of LPS-induced TNF-α secretion in SD rats", "conditions": "SD rat, oral", "protocol": "SD rats were orally given the solvent, the positive drug dexamethasone (DEX, 0.5 mg/kg) and the tested compound, and LPS (1 mg/kg) was intraperitoneally injected 0.5 hours after the administration. Two hours after LPS injection, the animals were euthanized by CO2, and blood samples were collected from the heart and placed in an anticoagulant tube containing EDTA-K2, then partial anticoagulated blood was centrifuged to separate the plasma and the plasma was frozen at −80° C.\nThe plasma was taken out of the refrigerator at −80° C., thawed at room temperature, and the concentration of TNF-α in the plasma was detected according to the ELISA kit instructions.\nThe experimental data were expressed by Mean±standard error (Mean±SEM), and the level of TNF-α was expressed by One-way ANOVA, and p<0.05 was considered as a significant difference. The result of in vivo pharmacodynamic study of TNF-α secretion in SD rats induced by […] (LPS) are shown in FIG. 1"}, "[3]": {"test_system": "human B-cell lymphoma OCI-LY10 cell subcutaneous xenograft tumor", "test": "Human B-cell lymphoma OCI-LY10 cell subcutaneous xenograft tumor mouse model", "type": "in vivo", "protocol": "The objective of the experiment was to study the efficacy of WX001 as the test drug on human B-cell lymphoma OCI-LY10 cell subcutaneous xenograft tumor in CB17 SCID mouse model.\nOCI-LY10 human B-cell lymphoma cells were cultured in a 37° C., 5% CO2 incubator.\nOCI-LY10 tumor cells were cultured and passaged, and 0.2 mL (1×10^7 cells) OCI-LY10 cells were subcutaneously inoculated on the right back of each […] (with Matrigel, volume ratio 1:1), and the group administration was started when the average tumor volume reached 167 mm^3. The health status and death of animals were monitored every day, and routine examinations included observing the effects of tumor growth and drug treatment on daily behaviors of animals, such as behavioral activities, food intake and water intake, weight change (weight was measured twice a week), tumor size (tumor volume was measured twice a week), appearance signs or other abnormal conditions.\nThe experimental index was to investigate whether the tumor growth was inhibited, delayed or cured. Including the measurement of tumor volume (TV), and the calculation of the compound's anti-tumor efficacy using TGI (%) or the relative tumor proliferation rate T/C (%).\nTV=0.5a×b^2, a and b represented the long diameter and short diameter of the tumor, respectively.\nT/C %=TRTV/CRTV×100% (TRTV: RTV in treatment group; CRTV: RTV in negative control group). Relative tumor volume (RTV) was calculated according to the results of tumor measurement, and the calculation formula was RTV=Vt/V0, wherein V0 was the average tumor volume measured at the time of group administration (i.e., d0), Vt was the average tumor volume at a certain measurement, and TRTV and CRTV were the data taken at the same day."}, "[4]": {"test_system": "OCI-LY3 cell line", "test": "OCI-LY3 cell proliferation inhibition (CTG)", "type": "cell-based", "conditions": "Homo sapiens, incubated for 72 hours", "protocol": "The tumor cell line used in this experiment was provided by Nanjing Cobioer Biotechnology Co., Ltd. See Table 13 below for specific information.\nThe tumor cell lines OCI-LY3 were used to detect the effect of the compound on inhibiting tumor cell proliferation in vitro. The OCI-LY3 cell line was cultured in the corresponding medium at 37° C. and 5% CO2, and the logarithmic growth phase cells were used in the experimental plating. The cells were collected and centrifuged at 800 rpm for 5 minutes, and the culture medium was re-suspended and spread in a 96-well plate. After incubating overnight in a 37° C., 5% CO2 incubator, the cells with different concentration gradients (10 μL of prepared diluent of the tested compound) were incubated for 72 hours, and the cell culture plates were incubated with CTG reagent at room temperature and away from light for 30 minutes, and then recovered to room temperature. 100 μL/hole of CTG solution was added into the biosafety cabinet away from light, and the plate shaker was shaken and mixed evenly away from light for 2 minutes, and incubated at room temperature away from light for 10 minutes. The luminescence values were read and recorded using the Perkin Elmer Envision 2104 MuLtilabel Reader.\nThe results of luminescence values measured at each drug concentration were normalized with the luminescence values of the blank control group, and the ratio of this value to the DMSO group was taken as the cell inhibition rate (%). Using GraphPad software, the logarithm of drug concentration (log drug concentration) versus inhibition rate was plotted, and the software automatically fitted and calculated IC50 value and 95% confidence limit value by log (inhibitor) vs. normalized response algorithm of nonlinear regression."}, "[5]": {"conditions": "50 mpk, 18 days after the start of administration, p<0.001"}}}
{"compound": "Cc1cc(-c2nc(C(=O)Nc3cn4cc(CCC(C)(C)O)nc4cc3N3CCCCC3)co2)ccn1", "note": "[WX001]", "values": [{"measurement": "IC50", "setting": "[1]", "value": 0.124, "unit": "µM"}, {"measurement": "inhibitory effect on TNF-α secretion induced by LPS", "setting": "[2]; LPS 1 mg/kg intraperitoneal 0.5 hours after administration, plasma 2 hours after LPS", "value": "significant inhibitory effect"}, {"measurement": "efficacy on LPS-induced TNF-α secretion compared with dexamethasone", "setting": "[2]; dose of 20 mpk", "value": "equivalent to the efficacy of dexamethasone (DEX) at a dose of 0.5 mpk"}, {"measurement": "anti-tumor effect compared with the solvent control group", "setting": "[3]; 50 mpk, 18 days", "value": "significant anti-tumor effect"}, {"measurement": "T/C value", "setting": "[3]; [5]", "value": 22, "unit": "%"}, {"measurement": "TGI value", "setting": "[3]; [5]", "value": 109, "unit": "%"}, {"measurement": "drug tolerance (body weight, abnormality)", "setting": "[3]; OCI-LY10 xenograft mice, 18 days of administration", "value": "well tolerated"}, {"measurement": "IC50", "setting": "[4]", "value": 1.29, "unit": "µM"}]}
